The record followed here is ChEMBL document CHEMBL4393743, “Anti-tumor activity evaluation of novel tubulin and HDAC dual-targeting inhibitors” (Bioorg Med Chem Lett, 2019).

For one experiment, the target named is T1, Histone deacetylase 8 (Homo sapiens, UniProt Q9BY41).
T1 sequence (Q9BY41 whole entry): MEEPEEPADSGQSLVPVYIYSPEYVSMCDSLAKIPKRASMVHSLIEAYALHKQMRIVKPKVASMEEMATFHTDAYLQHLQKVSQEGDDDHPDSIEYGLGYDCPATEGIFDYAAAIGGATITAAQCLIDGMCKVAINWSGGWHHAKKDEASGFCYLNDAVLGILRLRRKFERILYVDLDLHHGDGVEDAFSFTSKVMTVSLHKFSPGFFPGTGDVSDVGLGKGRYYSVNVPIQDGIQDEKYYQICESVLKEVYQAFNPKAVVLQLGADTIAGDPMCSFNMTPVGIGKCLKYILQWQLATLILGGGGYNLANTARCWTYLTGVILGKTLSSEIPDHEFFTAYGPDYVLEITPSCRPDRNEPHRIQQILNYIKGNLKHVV
Put plainly: Inhibition of HDAC8 (unknown origin) using Boc-Lys(Ac)-AMC as substrate incubated for 60 mins by fluorescence assay.

In the next experiment the test system is NCI-H226. Put plainly: Antiproliferative activity against human NCI-H226 cells assessed as cell growth inhibition incubated for 72 hrs by MTT assay. Format: functional, cell-based. Particulars: NCI-H226, 72 h.
Experiment [1] concerns the target T2, Protein deacetylase HDAC6 (Homo sapiens, UniProt Q9UBN7).
T2 sequence (Q9UBN7 whole entry): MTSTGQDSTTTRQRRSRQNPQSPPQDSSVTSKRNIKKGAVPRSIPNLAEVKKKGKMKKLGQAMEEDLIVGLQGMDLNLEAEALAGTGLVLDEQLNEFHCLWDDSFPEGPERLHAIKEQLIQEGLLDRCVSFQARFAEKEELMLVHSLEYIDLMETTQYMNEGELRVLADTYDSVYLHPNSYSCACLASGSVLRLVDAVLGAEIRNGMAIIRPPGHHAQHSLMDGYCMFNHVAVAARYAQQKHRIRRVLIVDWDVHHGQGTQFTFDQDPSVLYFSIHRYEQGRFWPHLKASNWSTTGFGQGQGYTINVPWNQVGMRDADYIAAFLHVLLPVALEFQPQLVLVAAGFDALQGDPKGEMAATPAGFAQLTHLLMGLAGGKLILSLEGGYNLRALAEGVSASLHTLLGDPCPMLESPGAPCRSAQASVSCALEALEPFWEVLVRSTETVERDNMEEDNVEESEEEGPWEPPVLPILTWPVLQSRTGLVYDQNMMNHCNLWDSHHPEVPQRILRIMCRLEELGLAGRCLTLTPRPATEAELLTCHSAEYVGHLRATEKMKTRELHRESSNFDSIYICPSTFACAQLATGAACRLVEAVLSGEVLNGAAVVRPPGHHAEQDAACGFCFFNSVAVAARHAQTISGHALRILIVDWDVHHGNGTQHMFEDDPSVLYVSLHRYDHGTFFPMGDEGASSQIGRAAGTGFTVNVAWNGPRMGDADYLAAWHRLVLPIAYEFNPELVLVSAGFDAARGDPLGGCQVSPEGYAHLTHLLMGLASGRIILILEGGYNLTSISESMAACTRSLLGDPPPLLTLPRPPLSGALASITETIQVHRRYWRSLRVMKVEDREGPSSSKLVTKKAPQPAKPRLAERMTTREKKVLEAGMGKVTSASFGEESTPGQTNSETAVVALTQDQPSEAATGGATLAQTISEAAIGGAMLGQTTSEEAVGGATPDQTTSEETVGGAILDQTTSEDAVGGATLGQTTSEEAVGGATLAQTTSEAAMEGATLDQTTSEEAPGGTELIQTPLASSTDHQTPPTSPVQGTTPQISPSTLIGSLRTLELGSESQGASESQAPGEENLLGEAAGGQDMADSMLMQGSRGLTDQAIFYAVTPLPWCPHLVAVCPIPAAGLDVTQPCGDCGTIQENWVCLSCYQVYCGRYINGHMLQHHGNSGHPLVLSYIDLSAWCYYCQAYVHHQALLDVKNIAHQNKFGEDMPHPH
Put plainly: Inhibition of HDAC6 (unknown origin) using Boc-Lys(Ac)-AMC as substrate incubated for 60 mins by fluorescence assay.

The test system of another experiment is HeLa. Put plainly: Antiproliferative activity against human HeLa cells assessed as cell growth inhibition incubated for 72 hrs by MTT assay. It is filed as functional, cell-based.
Another experiment deals with SGC-7901. The experiment in a line: Antiproliferative activity against human SGC7901 cells assessed as cell growth inhibition incubated for 72 hrs by MTT assay. Format: functional, cell-based. The following applies: SGC-7901, 72 h.
Another experiment concerns HCT-116. Put plainly: Antiproliferative activity against human HCT116 cells assessed as cell growth inhibition incubated for 72 hrs by MTT assay. It is filed as functional, cell-based. The following applies: HCT-116, 72 h.
The next experiment concerns NCI-H460. Put plainly: Antiproliferative activity against human NCI-H460 cells assessed as cell growth inhibition incubated for 72 hrs by MTT assay. Format: functional, cell-based. The following applies: NCI-H460, 72 h.
For a further experiment, the system named is MCF7. The experiment in a line: Antiproliferative activity against human MCF7 cells assessed as cell growth inhibition incubated for 72 hrs by MTT assay. Format: functional, cell-based. Particulars: MCF7, 72 h.
For experiment [2], the system named is A549. The experiment in a line: Induction of apoptosis in human A549 cells assessed as necrotic cells at 0.1 uM incubated for 72 hrs by Annexin V-FITC/propidium iodide-staining based flow cytometric analysis (reference value: 2.76%). It is filed as functional.
Experiment [3] concerns A549. Put plainly: Induction of apoptosis in human A549 cells assessed as necrotic cells at 0.3 uM incubated for 72 hrs by Annexin V-FITC/propidium iodide-staining based flow cytometric analysis (reference value: 2.76%). Format: functional.
Experiment [4] deals with A549. Put plainly: Induction of apoptosis in human A549 cells assessed as live cells at 1 uM incubated for 72 hrs by Annexin V-FITC/propidium iodide-staining based flow cytometric analysis (reference value: 89.8%). It is filed as functional.
Experiment [5] relates to A549. The experiment in a line: Induction of cell cycle arrest in human A549 cells assessed as accumulation at G0/G1 phase at 0.1 uM incubated for 36 hrs by propidium iodide staining based flow cytometry (reference value: 72.51%). It is filed as functional.
Experiment [6] deals with A549. The experiment in a line: Induction of cell cycle arrest in human A549 cells assessed as accumulation at G2/M phase at 0.1 uM incubated for 36 hrs by propidium iodide staining based flow cytometry (reference value: 10.83%). It is filed as functional.
The subject of experiment [7] is A549. The experiment in a line: Induction of cell cycle arrest in human A549 cells assessed as accumulation at S phase at 0.3 uM incubated for 36 hrs by propidium iodide staining based flow cytometry (reference value: 16.66%). It is filed as functional.
For experiment [8], the system named is A549. The experiment in a line: Induction of cell cycle arrest in human A549 cells assessed as accumulation at S phase at 3 uM incubated for 36 hrs by propidium iodide staining based flow cytometry (reference value: 16.66%). It is filed as functional.
Experiment [9] deals with A549. The experiment in a line: Induction of cell cycle arrest in human A549 cells assessed as accumulation at G2/M phase at 3 uM incubated for 36 hrs by propidium iodide staining based flow cytometry (reference value: 10.83%). Format: functional.
In experiment [10] the test system is A549. Put plainly: Induction of cell cycle arrest in human A549 cells assessed as accumulation at G0/G1 phase at 10 uM incubated for 36 hrs by propidium iodide staining based flow cytometry (reference value: 72.51%). It is filed as functional.
The target of experiment [11] is Histone deacetylase (Homo sapiens) (UniProt Q13547+O15379+Q9UBN7+Q92769+Q9UQL6+Q8WUI4+Q9BY41+Q96DB2+P56524+Q9UKV0+Q969S8). Particulars: HeLa, at 1 µM.
Description: Inhibition of HDAC in human HeLa cell nuclear extracts at 1 uM

The structures appear in SMILES notation.

Regarding `COc1ccc(/C=C(\C)C(=O)c2cc(OC)c(OC)c(OC)c2)cc1OCCCC(=O)NO`, the IC50 at Histone deacetylase 8 was determined as 1.7 µM; in the experiment on NCI-H226, 7.54 µM; in [1], 0.47 µM; with HeLa, 0.89 µM; with SGC-7901 it was 1.06 µM; with HCT-116, 7.46 µM. Besides, the IC50 amounted to 2.95 µM in the experiment on NCI-H460 and 7.33 µM with MCF7. Also, the Activity in the experiment on A549 [2] came to 1.51%; in the experiment with A549 [3], 2.19%; with A549 [4], 58.9%; with A549 [5], 68.44%; in the experiment on A549 [6], 9.47%; in the experiment on A549 [7], 39.96%. For the same compound, the Activity in the experiment on A549 [8] worked out at 10.18%; in the experiment on A549 [9] it was 80.69%; with A549 [10] it was 1.57%. In experiment [11], the inhibition was found to be 19.9%.
